Values quoted from earlier work, collected in patent US4323647A, “Steric hindrance enzyme immunoassay” (University of Miami, priority 1980, dated 1982).

Target: beta-galactosidase isolated from E. coli (Escherichia coli, UniProt P00722)
Conditions: potent competitive inhibitor; Lai, et al., Biophys. Res. Comm. 54: 463-468 (1973)

Chain of beta-galactosidase isolated from E. coli (P00722 2-1024 limits assumed): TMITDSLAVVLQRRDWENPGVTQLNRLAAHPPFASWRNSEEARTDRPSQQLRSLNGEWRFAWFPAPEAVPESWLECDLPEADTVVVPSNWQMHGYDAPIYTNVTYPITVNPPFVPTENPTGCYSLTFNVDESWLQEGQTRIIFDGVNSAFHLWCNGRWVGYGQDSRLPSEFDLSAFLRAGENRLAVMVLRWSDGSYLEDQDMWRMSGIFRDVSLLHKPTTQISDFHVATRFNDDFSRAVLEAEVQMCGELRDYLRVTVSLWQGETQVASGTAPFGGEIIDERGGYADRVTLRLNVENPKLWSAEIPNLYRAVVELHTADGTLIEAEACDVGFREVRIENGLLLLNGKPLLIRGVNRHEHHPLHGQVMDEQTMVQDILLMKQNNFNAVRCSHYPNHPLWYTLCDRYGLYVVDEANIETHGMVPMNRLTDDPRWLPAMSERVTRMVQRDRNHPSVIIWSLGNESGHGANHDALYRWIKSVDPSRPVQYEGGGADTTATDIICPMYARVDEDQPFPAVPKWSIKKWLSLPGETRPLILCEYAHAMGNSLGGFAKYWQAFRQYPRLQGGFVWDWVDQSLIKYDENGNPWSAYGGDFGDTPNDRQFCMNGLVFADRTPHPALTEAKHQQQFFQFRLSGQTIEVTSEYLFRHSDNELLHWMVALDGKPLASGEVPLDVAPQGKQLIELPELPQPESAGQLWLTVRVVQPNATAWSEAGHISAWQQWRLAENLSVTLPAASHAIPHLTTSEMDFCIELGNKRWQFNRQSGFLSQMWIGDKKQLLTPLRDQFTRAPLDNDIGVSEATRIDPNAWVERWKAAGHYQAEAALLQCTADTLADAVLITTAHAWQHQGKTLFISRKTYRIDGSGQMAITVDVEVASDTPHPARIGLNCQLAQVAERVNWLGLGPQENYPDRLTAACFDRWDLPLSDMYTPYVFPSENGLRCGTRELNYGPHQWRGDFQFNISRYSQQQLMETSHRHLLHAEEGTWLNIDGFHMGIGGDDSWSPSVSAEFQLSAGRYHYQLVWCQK

Question: With `N[C@@H]1O[C@H](CO)[C@H](O)[C@H](O)[C@H]1O` [beta-D-galactosylamine] as the compound, how does the Ki read?
Answer: 225 µM
